Tests used:
[1] = test system: human iPSC neurons, astrocytes and microglia treated with 5 μM sAβ42s; assay: Focused small molecule screen, triple culture (neuron, astrocyte, microglia), rescue from sAβ42s toxicity; assay type: cell-based
Experimental: (§1) FIGS. 11A-11D show synapse % rescue versus MAP2% rescue (FIGS. 11A-11B) and beta III tubulin % rescue versus MAP2% rescue (FIGS. 11C-11D), in neurons and astrocytes (FIGS. 11A and 11C) or neurons, astrocytes, and microglia (FIGS. 11B and 11D) treated with 5 μM sAβ42s and small molecules from a focused screen of known neuroprotective agents at multiple concentrations (50 μM, 25 μM, 12.5 μM and 6.25 μM (double culture), 50 μM, 12.5 μM, 3.1 μM and 0.78 μM (triple culture). Small molecules that prevented toxicity in dendrites (MAP2), synapses (Synapsin 1/2), cell count (CUX2), or axons ([…]) at or above 30% were considered hits (red dotted line).
Frozen cells were thawed and immediately seeded at a density of 8,000 cells/well of a 384-well plate onto 8-week old neuron-astrocyte co-culture in Microglia media (BrainPhys™ neuronal media (Stem Cell Technologies) supplemented with 1× B27 with vitamin A, 1×N2 Plus Media Supplement (R&D Systems), 20 ng/mL BDNF, 20 ng/mL GDNF, 1 mM creatine, 200 nM L-ascorbic acid, 1 μg/mL mouse laminin, 0.5 mM GlutaMAX™ (Thermofisher), 0.5× penicillin-streptomycin, 1× normocin, 5 ng/mL TGF-β, 100 ng/mL human IL-34, 1.5 μg/mL cholesterol, 1 ng/mL gondoic acid, 100 ng/mL oleic acid, 460 μM thioglycerol, 1× insulin-transferrin-selenium, 25 ng/mL rhM-CSF, 5.4 μg/mL human insulin solution).
(§2) In double (neuron, astrocyte) and triple (neuron, astrocyte, microglia) cultures, each small molecule listed in Table 1 was tested in the AD model paradigm at up to four concentrations. Molecules that characterized ≥30% rescue in any of the four measurements of dendrites area (MAP2), synapses count (synapsin 1/2), or cell count (CUX2), or axon area (Beta III Tubulin; “BT3”)) were classified as hits (FIGS. 11A-11D, Table 2, and Table 3).

[2] = test system: human iPSC neurons and astrocytes treated with 5 μM sAβ42s; assay: Focused small molecule screen, double culture (neuron, astrocyte), rescue from sAβ42s toxicity, high content imaging; assay type: cell-based; details: double culture, 5 μM sAβ42s
Experimental: as §1
Neurons from both NSC lines were evaluated by immunofluorescence staining. Briefly, cells were fixed with 4% PFA and 4% sucrose at room temperature for 20 minutes using Bravo automation. Fixed cells were then washed 2 times with PBS using Biotek 406 microplate washer (Beckman Coulter), followed by permeabilization and blocking by incubation with a solution containing 1×PBS, 0.1% Triton X-100, 2% donkey serum, and 1% BSA at room temperature for 30 minutes. Blocking solution was removed and cells were incubated with primary antibodies in blocking solution overnight at 4° C. After washing 6 times with PBS on Biotek 406 cell plate washer (Beckman Coulter), cells were then incubated with fluorophore-conjugated secondary antibodies for 1 hour at room temperature in the dark to avoid photobleaching. Cells were then washed 6 more times in with PBS before imaging. Fluorescent images were captured using IN Cell 6000 confocal microscope (GE Healthcare Life Sciences). The image analysis was performed with IN Cell 6000 analysis software.
Prior to experimentation, media volume in wells containing neurons was equalized with liquid handling automation (Bravo) in order to ensure precise control of concentrations. All Aβ42 oligomers, anti-Aβ, small molecules, inflammatory cytokines were prepared at 10× concentration and added to Neuronal Culture Media at an appropriate volume. For the repeated dosing experiments, the media were refreshed 50% at each dosing first, before adding Aβ42 oligomers, and/or anti-Aβ antibody at the specified final concentration.
as §2

Compound | % B3T rescue ([1]; 0.78 μM compound) [%] | % MAP2 rescue ([1]; 0.78 μM compound) [%] | % Synapse rescue ([1]; 0.78 μM compound) [%] | % B3T rescue ([1]; 3.13 μM compound) [%] | % MAP2 rescue ([1]; 3.13 μM compound) [%] | % Synapse rescue ([1]; 3.13 μM compound) [%] | % B3T rescue ([1]; 12.50 μM compound) [%] | % MAP2 rescue ([1]; 12.50 μM compound) [%] | % Synapse rescue ([1]; 12.50 μM compound) [%] | % B3T rescue ([1]; 50.00 μM compound) [%] | % MAP2 rescue ([1]; 50.00 μM compound) [%] | % Synapse rescue ([1]; 50.00 μM compound) [%] | % B3T rescue ([2]; 6.25 μM compound) [%] | % Cux2 rescue ([2]; 6.25 μM compound) [%] | % MAP2 rescue ([2]; 6.25 μM compound) [%] | % Synapse rescue ([2]; 6.25 μM compound) [%] | % B3T rescue ([2]; 50 μM compound) [%] | % Cux2 rescue ([2]; 50 μM compound) [%] | % MAP2 rescue ([2]; 50 μM compound) [%] | % Synapse rescue ([2]; 50 μM compound) [%] | also measured
O=C1Nc2ccc3ncsc3c2/C1=C/Nc1ccc(S(=O)(=O)Nc2ccccn2)cc1 [GW8510] | 45 | −4 | 8 | 70 | 15 | 25 | 68 | 28 | 32 | 63 | −8 | −15 | 32 | −1 | 48 | 52 | 47 | −22 | 52 | 49 | % B3T rescue ([2]; 12.5 μM compound): 20%; % Cux2 rescue ([2]; 12.5 μM compound): 16%; % MAP2 rescue ([2]; 12.5 μM compound): 37%; % Synapse rescue ([2]; 12.5 μM compound): 38%; % B3T rescue ([2]; 25 μM compound): 31%; % Cux2 rescue ([2]; 25 μM compound): −18%; % MAP2 rescue ([2]; 25 μM compound): 37%; % Synapse rescue ([2]; 25 μM compound): 38%
N#C/C(=C\c1ccc(O)c(O)c1)C(=O)OCCc1cccs1 [2-TEDC] | – | – | – | 40 | 22 | 15 | 43 | 25 | 17 | 73 | 48 | 40 | – | – | – | – | 31 | 16 | 22 | 10 | –
Cc1ccc2c(c1)C(=O)[C@]1(O)CCN(c3ccccc3)C1=N2 [(S)-(−)-Blebbistatin] | – | – | – | – | – | – | – | – | – | 36 | 24 | 20 | 41 | 10 | 21 | 19 | 49 | 23 | 34 | 12 | % B3T rescue ([2]; 12.5 μM compound): 34%; % Cux2 rescue ([2]; 12.5 μM compound): 3%; % MAP2 rescue ([2]; 12.5 μM compound): 25%; % Synapse rescue ([2]; 12.5 μM compound): 15%; % B3T rescue ([2]; 25 μM compound): 38%; % Cux2 rescue ([2]; 25 μM compound): 5%; % MAP2 rescue ([2]; 25 μM compound): 34%; % Synapse rescue ([2]; 25 μM compound): 13%
O=C1NC(=O)c2c1c1c3ccccc3n3c1c1c2c2ccccc2n1C1CCC3O1 [SB 218078] | 38 | 10 | 14 | – | – | – | – | – | – | −11 | 53 | 19 | – | – | – | – | 72 | −39 | −92 | −15 | –
